Patent publication US10787423B2, “Piperazine and piperidine derivatives, their synthesis and use thereof in inhibiting VDAC oligomerization, apoptosis and mitochondria dysfunction” (THE NATIONAL INSTITUTE FOR BIOTECHNOLOGY IN THE NEGEV LTD., priority 2015, dated 2020)
Where two headings read alike, the source gives them in different places.

Columns and labels:
[1] = test system: Cyto c release from mitochondria; assay: Selenite-induced Cytochrome c release from mitochondria in HEK-293 cells; type: cell-based; conditions: Homo sapiens, HEK293, compound 2 h then selenite 15 μM 4 h, means±SD (n=3)
Protocol: One of the ways cell apoptosis is activated is by release of Cytochrome c (Cyto c) from the mitochondria into cytosol. […] Cyto c released to the cytosol may be analyzed by immunoblotting using Cyto c-specific antibodies.
Cells treated with apoptosis inducers in the absence or presence of the tested compounds were harvested, washed twice with PBS, pH 7.4 and gently resuspended at 6 mg/ml in ice-cold buffer (100 mM KCl, 2.5 mM MgCl2, 250 mM sucrose, 20 mM HEPES/KOH pH 7.5, 0.2 mM EDTA, 1 mM dithiothreitol, 1 μg/ml leupeptin, […] and 0.1 mM PMSF) containing 0.025% digitonin and incubated for 10 min on ice. Samples were centrifuged at 10,000×g (relative centrifugal force—RCF) at 4° C. for 5 min to obtain supernatants (cytosolic extracts free of mitochondria) and pellet (fraction that contains mitochondria). Cytochrome c released to the cytosol was analyzed by immunoblotting using Cytochrome c-specific antibodies. Anti-VDAC1 and anti-GAPDH antibodies were used to verify that the cytosolic extracts are mitochondria-free.
c. Cytochrome c (Cyto c) release was determined as described above in Methods (Cytochrome c release from mitochondria). Briefly, to assess Cyto c release, cells were incubated on ice for 10 min with 0.025% digitonin, centrifuged, and the pellet (mitochondria—Mito) and supernatants (cytosol—Cytos) were subjected to SDS-PAGE and immunoblotting, using anti-Cyto c, antibodies. Anti-VDAC1 and anti-GAPDH antibodies were used to verify that the cytosolic extracts are mitochondria-free. The results of Cyto c release from the mitochondria as induced by selenite are presented as immunoblots, with the cytosolic and mitochondrial fractions confirmed by immunoblotting of GAPDH (glyceraldehyde-3-phosphate dehydrogenase) and VDAC1, respectively, in the FIG. 15d. The data are presented as percent inhibition. The results shown correspond to means±SD (n=3). The closed circle (●) indicates VBIT-4 (compound of Formula 1), the open circle (◯) indicates compound of Formula 10 (AKOS-022), and an open square (□) indicates VBIT-3 (compound of Formula 2).
d. […]

[2] = Brain penetration after oral gavage, HPLC/MS of brain extracts; type: in vivo, C57BL/6 mice; conditions: for concentration at 24 h: C57BL/6, mouse, brain, oral, 50 mg/kg, mouse, read-out: Compounds in brain extract
Protocol: C57BL/6 mice ([…]) were used. The animals received treatments with either free compounds of Formulae 1 and 10, or encapsulated compounds, prepared according to the Examples 16 and 17. Doses as indicated in the Table 4 below were administered in phosphate-buffered saline (PBS) through an oral gavage. After 12 hours and 24 hours, randomly selected mice from each group were sacrificed, their brains collected and stored in −80° C. The concentrations of the compounds in the tissues were determined by HPLC/MS analysis.
Tissue samples were homogenized in phosphate-buffered saline solution, then diluted with acetonitrile to 50% v/v, centrifuged at 10,000 g for 10 minutes, and supernatants were analyzed. The compounds concentrations in the brain extracts were determined from calibration curves. The results were the averaged from 2 mice for each treatment group/time point.

[3] = IC50 for several activities / effective range (activity not specified); conditions: quoted for comparison with brain levels
[4] = test system: 5XFAD transgenic mice with AD-like disease; assay: Radial-arm water maze learning and memory task in 5XFAD transgenic mice; type: in vivo, mouse; conditions: 5XFAD mice, 20 mg/kg in drinking water for 4 months, tested at six months of age
Protocol: Animals at age two months were assigned to three groups: transgenic treated (TG-T, 8 males and 3 females), transgenic vehicle (TG-V, 8 males and 3 females), and wild type (WT, 10 males and 8 females).
Two-months old 5XFAD mice were provided with 0.9% of DMSO solution or VBIT-4 solution (20 mg/kg in 0.9% DMSO) in drinking water replaced with fresh solution three times a week in the first month and thereafter twice a week for additional 3 months.
When the mice reached the age of six months, a two-day radial-arm water maze (RAWM) trial was performed as described previously (Jennifer Alamed, et al, Nature Protocols 1, (2006) 1671-1679) to test the effect of VBIT-4 on learning and memory task. The RAWM containing six swim paths (arms) was used. The arms were extending out from an open central area with an escape platform located at the end of one arm (the goal arm). The goal arm location remained constant for a given mouse. On day 1, mice were trained for 15 trials (spaced over 3 h), with trials alternating between visible and hidden platforms. On day 2, mice were trained for 15 trials with the hidden platform.
Entry into an incorrect arm was scored as an error, and the times spent by the animal to find the platform were recorded. […] To examine the source of differences the post-hoc test of Bonferroni-type was used. […]

[5] = biological target: VDAC1 (Homo sapiens, UniProt P21796); assay: Selenite-induced VDAC1 oligomerization in HeLa cells, EGS cross-linking; type: cell-based; parameters: endogenous in cells; host or cells: HeLa; conditions: 22 h with selenite 8 μM and increasing concentrations
Chain of VDAC1 (P21796 whole entry): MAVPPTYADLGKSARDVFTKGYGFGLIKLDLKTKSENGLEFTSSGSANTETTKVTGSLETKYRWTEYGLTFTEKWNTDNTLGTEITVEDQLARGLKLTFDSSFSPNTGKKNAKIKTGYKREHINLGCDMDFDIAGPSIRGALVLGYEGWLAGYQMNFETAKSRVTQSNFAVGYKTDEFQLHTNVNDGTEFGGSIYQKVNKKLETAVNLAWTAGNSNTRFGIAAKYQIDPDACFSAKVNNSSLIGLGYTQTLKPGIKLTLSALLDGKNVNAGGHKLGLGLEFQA
Protocol: Appropriate test cells (2.5-3 mg/ml) in PBS, were harvested after the treatment and incubated with the cross-linking reagent EGS at a ratio of 100-300 μM for sample of 2-3 mg protein/ml concentration (pH 8.3) for 15 minutes. Protein concentration was determined according to Lowry assay. Samples (60-80 μg protein) were subjected to SDS-PAGE by a standard technique and immunoblotting was performed using anti-VDAC1 antibodies. Gels were electro-transferred onto nitrocellulose membranes for immuno-staining. The membranes were incubated with a blocking solution containing 5% non-fat dry milk and 0.1% Tween-20 in Tris-buffered saline, followed by incubation with monoclonal anti-VDAC1, anti-Cytochrome c, anti-AIF or anti-actin antibodies. Membranes were then incubated with HRP-conjugated anti-mouse or anti-rabbit IgG (1:10,000), serving as secondary antibodies. Antibody labeling was detected by chemiluminescence. […] Quantitative analysis of immuno-reactive VDAC1 dimer, trimer and multimer bands was performed using FUSION-FX (Vilber Lourmat, France).
Cells (2.5 mg/ml) were washed with and resuspended in PBS, pH 8.3 and incubated with membrane-permeable cross-linker EGS (250 μM) at 30° C. for 15 min and then subjected to SDS-PAGE and immunoblotting using anti-VDAC1 antibodies. […] Cell death was analyzed using propidium iodide (PI) staining and flow cytometry.

SMILES | IC50 [1] [nM] | concentration at 24 h ([2]; 50 mg/kg in PLGA nanoparticles, oral gavage) [nM] | concentration at 24 h ([2]; 50 mg/kg oral gavage, free compound) [nM] | brain penetration ([2]; given orally, in solution or encapsulated in PLGA nano-particles) | IC50 [3] [nM] | RAWM number of errors [4] | RAWM total time spent [4] | selenite-induced VDAC1 oligomerization [5]
O=C(CC(CO)N1CCN(c2ccc(OC(F)(F)F)cc2)CC1)Nc1ccc(Cl)cc1 (racemic) [Formula 1, N-(4-chlorophenyl)-4-hydroxy-3-(4-(4-(trifluoromethoxy)phenyl)-piperazin-1-yl)butanamide] | 1800 ± 240 | 190 ± 70 | 120 ± 20 | reached the brain | 1000 | better than untreated TG | better than untreated TG | 
O=C(O)CNC(=O)C1(Nc2ccccc2)CCN(Cc2cccc3ccccc23)CC1 [Formula 3] |  |  |  |  |  |  |  | Inhibited
